Values joined by “and” are separate entries in the source; they are usually repeats but may differ in a detail not shown here. Equal entries are not always repeated.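 96-well plates; 48 h exposure; 5 concentrations. Endpoints by linear interpolation between flanking doses. Not reached: highest tested concentration assigned. At the GI50, growth is halved. Definition used: TGI = concentration required for complete inhibition of growth.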
Experiments:
Assay in all cases: inhibition of tumour cell growth, NCI panel, 48 h
SR leukemia = system: SR leukemia
UO-31 renal = system: UO-31 renal
HCT-15 colon = system: HCT-15 colon
A498 renal = system: A498 renal
HOP-92 NSCLC = system: HOP-92 NSCLC
HOP-62 NSCLC = system: HOP-62 NSCLC
M14 melanoma = system: M14 melanoma
CAKI-1 renal = system: CAKI-1 renal
786-0 renal = system: 786-0 renal
KM12 colon = system: KM12 colon

| Structure (SMILES) | GI50 (SR leukemia) | TGI (SR leukemia) | GI50 (UO-31 renal) | TGI (UO-31 renal) | GI50 (HCT-15 colon) | TGI (HCT-15 colon) | GI50 (A498 renal) | TGI (A498 renal) | GI50 (HOP-92 NSCLC) | TGI (HOP-92 NSCLC) | GI50 (HOP-62 NSCLC) | TGI (HOP-62 NSCLC) | GI50 (M14 melanoma) | TGI (M14 melanoma) | GI50 (CAKI-1 renal) | TGI (CAKI-1 renal) | GI50 (786-0 renal) | TGI (786-0 renal) | GI50 (KM12 colon) | TGI (KM12 colon) |
| --- | --- | --- | --- | --- | --- | --- | --- | --- | --- | --- | --- | --- | --- | --- | --- | --- | --- | --- | --- | --- |
| CN(C)CCCN(c1nc(C(Cl)(Cl)Cl)ns1)c1nc(C(Cl)(Cl)Cl)ns1 | 1.49 µM | 3.53 µM | 1.47 µM | 3.08 µM | 1.88 µM | 4.08 µM | 1.92 µM | 4.89 µM | 1.64 µM | 5.33 µM | 1.64 µM | 3.07 µM | 1.89 µM | 3.63 µM | 4.82 µM | 18.5 µM | 1.72 µM | 3.3 µM | 1.8 µM | 3.44 µM |
| COc1ccc2c(c1)CCc1c(-c3noc4c3CCc3cc(OC)ccc3-4)noc1-2 |  | > 100 µM |  | > 100 µM |  | > 100 µM |  | > 100 µM |  | > 100 µM |  | > 100 µM |  | > 100 µM |  | > 100 µM |  | > 100 µM |  | > 100 µM |
| CN[C@]12CC3(C=CC(=O)C=C3)O[C@@]1(Cc1ccc(OC)cc1)N(C)C(=O)N2 | 1.15 µM | 20.1 µM | 1.47 µM | 2.89 µM | 1.64 µM | 10.3 µM | 16.2 µM | 31.6 µM | 2.15 µM | 4.73 µM | 2.48 µM | 11.2 µM | 1.99 µM | 7.6 µM | 2.69 µM | 10.2 µM | 2.03 µM | 4.12 µM | 1.69 µM | 3.54 µM |
| Cc1cc(C)c(O)c(Cc2cccc(Cc3cc(C)cc(C)c3O)c2O)c1 |  | > 100 µM |  | > 100 µM |  | > 100 µM |  | > 100 µM |  | > 100 µM |  | > 100 µM |  | > 100 µM |  | > 100 µM |  | > 100 µM |  | > 100 µM |
| O=C1/C(=C\C(Cl)=C/c2ccc([N+](=O)[O-])cc2)SC(=S)N1CCc1ccc(O)cc1 | 0.327 µM |  | 0.324 µM | 1.24 µM | 0.246 µM | 0.741 µM | 1.63 µM | 3.07 µM | 1.6 µM | 3.29 µM | 1.41 µM | 4.22 µM | 0.494 µM | 1.84 µM | 0.548 µM | 1.53 µM | 0.255 µM | 0.707 µM | 0.312 µM | 1.05 µM |
| COc1cc2nc(Sc3c([N+](=O)[O-])ncn3C)[nH]c2cc1OC |  | 60.2 µM |  | > 100 µM |  | > 100 µM |  | > 100 µM |  | 45 µM |  | > 100 µM |  | > 100 µM |  | 37.2 µM |  | > 100 µM |  | > 100 µM |
| COc1cc2ccc3c4c(OC)cc(OC)c(OC)c4c(=O)n(C)c3c2cc1OC |  | 2.97 µM |  | > 48.9 µM | 1.87 µM |  |  | 16.7 µM | 1.55 µM | 16.7 µM and 40.4 µM | 1.4 µM | 7.11 µM and > 43.5 µM | 2.28 µM | 7.91 µM and > 33.9 µM | 6.83 µM | 16.7 µM and > 44.2 µM | 1.78 µM |  | 0.548 µM | 2.57 µM |
